Measurements from publication PMC9851200, “Multiparameter phenotypic screening for endogenous TFEB and TFE3 translocation identifies novel chemical series modulating lysosome function” (Autophagy, 2022).
Like-named read-outs stand apart in the source and are kept apart here.

Tests used:
endogenous TFEB = experiment: TFEB nuclear translocation, immunocytochemistry high-content imaging; format: cell-based
endogenous TFE3 = experiment: TFE3 nuclear translocation, immunocytochemistry high-content imaging; format: cell-based
SH-SY5Y cells [1] = tested on: SH-SY5Y cells; further: reference of the scale not given here
SH-SY5Y cells [2] = experiment: AK (adenylate kinase) release ToxiLight cytotoxicity assay; further: reference of the scale not given here
SH-SY5Y cells [3] = experiment: Nuclear count from microscopy images (cellular growth and toxicity); further: reference of the scale not given here
[4] = PKIS2 primary screening, DQ Red BSA intensity
[5] = PKIS2 primary screening, DQ Red BSA spot count

SMILES | TFEB % (endogenous TFEB; PKIS2 primary screening) | TFE3 % (endogenous TFE3; PKIS2 primary screening) | DQ Intensity (SH-SY5Y cells [1]; [4]) | DQ Spot (SH-SY5Y cells [1]; [5]) | AK (SH-SY5Y cells [2]; PKIS2 primary screening) | Nuclear Count (SH-SY5Y cells [3]; PKIS2 primary screening) | DQ Intensity (SH-SY5Y cells [1]; PKIS2 primary screening) | DQ Spot (SH-SY5Y cells [1]; PKIS2 primary screening) | TFEB % (endogenous TFEB; PKIS2 primary screen) | TFE3 % (endogenous TFE3; PKIS2 primary screen) | DQ Intensity (SH-SY5Y cells [1]; PKIS2 primary screen, DQ Red BSA intensity) | DQ Spot (SH-SY5Y cells [1]; PKIS2 primary screen, DQ Red BSA spot count) | AK (SH-SY5Y cells [2]; PKIS2 primary screen) | Nuclear Count (SH-SY5Y cells [3]; PKIS2 primary screen)
CS(=O)(=O)Nc1ccc(-c2ccnc3[nH]ccc23)cc1 [UNC10225427A] | 2.64% | 8.99% | 61.89 | 80.51 | 106.42 | 134.12 | – | – | – | – | – | – | – | –
CN(C)CCNS(=O)(=O)c1ccc(-c2ccnc3[nH]ccc23)cc1 [UNC10225452A] | 4.89% | 16.94% | 125.57 | 113.31 | 114.11 | 78.72 | – | – | – | – | – | – | – | –
O=C(Nc1n[nH]c2nc(-c3ccco3)c(Br)cc12)c1ccc(CN2CCCC2)cc1 [SB-742352] | 7.90% | 19.33% | 92.66 | 91.08 | 95.96 | 100.71 | – | – | – | – | – | – | – | –
CNc1cc(-c2ccc3c(N)n[nH]c3c2)nc(N)n1 [GSK2224810] | 4.15% | 7.03% | 93.32 | 95.12 | 132.47 | 109.90 | – | – | – | – | – | – | – | –
CN(C)CCN(C)C(=O)c1cc(-c2ccncc2)c(-c2ccc(Cl)c(O)c2)o1.Cl.Cl [UNC10225256A] | 10.97% | 22.07% | – | – | 88.55 | 130.04 | 171.47 | 68.22 | – | – | – | – | – | –
COc1cccc(NC(=O)NC2CCN(c3ccnc(Nc4cc(OC)c(OC)c(OC)c4)n3)C2)c1 (stereo not drawn) [GSK1379763] | 4.72% | 18.80% | 128.42 | 124.42 | 111.80 | 90.02 | – | – | – | – | – | – | – | –
FC(F)(F)c1cc(Nc2nccc(-c3c(-c4ccc(Cl)cc4)nn4ncccc34)n2)ccc1Cl [UNC10225192A] | 6.87% | 11.31% | – | – | 128.18 | 86.86 | 96.76 | 105.34 | – | – | – | – | – | –
C[C@@H]1CCCCN1c1cc(-c2ccc3c(N)n[nH]c3c2)nc(N)n1 [GSK2258759] | 3.40% | 12.52% | 61.15 | 84.49 | 88.63 | 88.84 | – | – | – | – | – | – | – | –
O=c1[nH]cc(-c2ccc(O)cc2)c2sc(-c3ccncc3)cc12 [UNC10225166A] | – | – | – | – | – | – | – | – | 3.69% | 6.08% | 80.95 | 75.27 | 95.26 | 145.07
COC(=O)C(NC(=O)NC1CCN(c2ccnc(Nc3ccc(F)cc3)n2)C1)c1ccccc1 (stereo not drawn) [GSK1379712] | 9.98% | 6.91% | 132.02 | 102.90 | 111.30 | 98.27 | – | – | – | – | – | – | – | –
CN(c1ccc(NC(=O)Nc2cc(C(F)(F)F)ccc2F)cc1)c1ccnc(Nc2ccc(S(N)(=O)=O)cc2)n1 [GW809893] | 22.40% | 18.55% | 76.59 | 83.26 | 111.00 | 46.13 | – | – | – | – | – | – | – | –
Cl.c1ccc(Cn2ccc3cc(Nc4ncnc5ccccc45)ccc32)cc1 [UNC10225488A] | 3.41% | 8.10% | 101.44 | 98.20 | 113.68 | 128.88 | – | – | – | – | – | – | – | –
Cl.Oc1ccc(-c2nc(-c3ccccc3)[nH]c2-c2ccncc2)cc1 [UNC10225482A] | 7.63% | 9.08% | 99.60 | 108.10 | 90.33 | 92.35 | – | – | – | – | – | – | – | –
